Data on 13 compounds can be found in ChEMBL document CHEMBL1153577, “2D- and 3D-QSAR studies on 54 anti-tumor Rubiaceae-type cyclopeptides” (Eur J Med Chem, 2009).

The experiment relates to P388. In words: Cytotoxicity against mouse P388 cell. Format: functional, cell-based. As to conditions: Mus musculus, P388.

SMILES strings stand for the structures.

Turning to `COc1ccc(C[C@H]2C(=O)N[C@@H](C)C(=O)N(C)[C@H]3Cc4ccc(cc4)Oc4cc(ccc4O)C[C@@H](C(=O)N[C@H](C)C(=O)N[C@@H](C)C(=O)N2C)N(C)C3=O)cc1` [DEOXYBOUVARDIN], the IC50 (in general, the concentration at which inhibition is half-maximal) is 3.55 nM. In other words, the single-digit nanomolar range.
`C/C=C/c1ccc(C[C@H]2C(=O)N[C@@H](C)C(=O)N(C)[C@H]3Cc4ccc(cc4)Oc4cc(ccc4OC)C[C@@H](C(=O)N[C@H](C)C(=O)N[C@@H](C)C(=O)N2C)N(C)C3=O)cc1` showed a 50% inhibitory concentration (IC50) of 5.01 nM.
In turn, `COc1ccc(C[C@H]2C(=O)N[C@@H](C)C(=O)N(C)[C@H]3Cc4ccc(c(O)c4)Oc4cc(ccc4OC)C[C@@H](C(=O)N[C@H](C)C(=O)N[C@@H](C)C(=O)N2C)N(C)C3=O)cc1O` gave an IC50 of 15100 nM. Against the preceding compound, the IC50 is about 3000-fold higher.
In turn, `COc1ccc2cc1Oc1ccc(cc1)C[C@H]1C(=O)N(C)[C@@H](C2)C(=O)N[C@H](C)C(=O)N[C@@H](C)C(=O)N(C)[C@@H](Cc2ccc(C)cc2)C(=O)N[C@@H](C)C(=O)N1C` gave an IC50 of 24 nM.
The compound `CCCc1ccc(C[C@H]2C(=O)N[C@@H](C)C(=O)N(C)[C@H]3Cc4ccc(cc4)Oc4cc(ccc4OC)C[C@@H](C(=O)N[C@H](C)C(=O)N[C@@H](C)C(=O)N2C)N(C)C3=O)cc1` showed a 50% inhibitory concentration (IC50) of 25.7 nM.
In the case of `COc1ccc(C[C@H]2C(=S)N[C@@H](C)C(=O)N(C)[C@H]3Cc4ccc(cc4)Oc4cc(ccc4O)C[C@@H](C(=O)N[C@H](C)C(=O)N[C@@H](C)C(=O)N2C)N(C)C3=O)cc1`, the IC50 was 1.15 nM.
The compound `C=C[C@@H]1NC(=O)[C@@H](C)NC(=O)[C@@H]2Cc3ccc(OC)c(c3)Oc3ccc(cc3)C[C@@H](C(=O)N2C)N(C)C(=O)[C@H](C)NC(=O)[C@H](Cc2ccc(OC)cc2)N(C)C1=O` showed an IC50 of 25.7 nM. Compared with the last compound, the IC50 is about 22-fold higher.
`COC(=O)C[C@@H]1NC(=O)[C@@H](C)NC(=O)[C@@H]2Cc3ccc(OC)c(c3)Oc3ccc(cc3)C[C@@H](C(=O)N2C)N(C)C(=O)[C@H](C)NC(=S)[C@H](Cc2ccc(OC)cc2)N(C)C1=O` had a half-inhibitory concentration (IC50) of 4.79 nM.
Consider `COc1ccc(C[C@H]2C(=O)N[C@@H](C)C(=O)N(C)[C@H]3Cc4ccc(cc4)Oc4cc(ccc4OC)C[C@@H](C(=O)N[C@H](C)C(=O)N4CCCC[C@H]4C(=O)N2C)N(C)C3=O)cc1`, for which the IC50 was 97.7 nM. Against the preceding compound, the IC50 is about 20-fold higher.
In turn, `COc1ccc2cc1Oc1ccc(cc1)C[C@H]1C(=O)N(C)[C@@H](C2)C(=O)N[C@H](C)C(=O)N[C@@H](C)C(=O)N(C)[C@@H](Cc2ccccc2)C(=O)N[C@@H](C)C(=O)N1C` gave an IC50 of 295 nM.
As for `COc1ccc(C[C@H]2C(=S)N[C@@H](C)C(=O)N(C)[C@H]3Cc4ccc(cc4)Oc4cc(ccc4OC)C[C@@H](C(=O)N[C@H](C)C(=S)N[C@@H](C)C(=O)N2C)N(C)C3=O)cc1`, the figure is 5.5 nM; as for `COc1ccc(C[C@H]2C(=S)N[C@@H](C)C(=O)N(C)[C@H]3Cc4ccc(cc4)Oc4cc(ccc4OC)C[C@@H](C(=O)N[C@H](C)C(=O)N[C@@H](C)C(=O)N2C)N(C)C3=O)cc1`, 0.741 nM; as for `COc1ccc(C[C@H]2C(=O)N[C@@H](C)C(=O)N(C)[C@H]3Cc4ccc(cc4)Oc4cc(ccc4OC)C[C@@H](C(=S)N[C@H](C)C(=O)N[C@@H](C)C(=O)N2C)N(C)C3=O)cc1`, 3.31 nM.
